Read-outs that look alike come from different tables or passages of the source.
Key:
[1] = system: RPMI-8226; assay: panel of 60 human tumor cell lines, growth inhibition (Leukemia); conditions: for GI50 / CC50: Homo sapiens; for CC50: RPMI-8226, read-out: LC50
[2] = system: MALME-3M; assay: panel of 60 human tumor cell lines, growth inhibition (Melanoma); conditions: for GI50 / CC50: Homo sapiens, Malme-3M; for CC50: read-out: LC50; for Percent Growth / TGI: MALME-3M
[3] = system: AML 052308 cells
Description: Derivatives were screened for antileukemic activity against AML cells in culture (See FIGS. 1-7).

[4] = system: panel of 60 human tumor cell lines; assay: panel of 60 human tumor cell lines, whole panel or sub-panel (single concentration screen, summaries); type: cell-based; conditions: for inhibition at 10 µM: single concentration of 10^−5 M, read-out: growth inhibition in at least eight human cancer cell lines from the panel; for GI50: range over 6a and 6e
[5] = system: OVCAR-4; assay: panel of 60 human tumor cell lines, growth inhibition (Ovarian Cancer); type: cell-based; conditions: for GI50 / IC (TGI) / CC50: Homo sapiens; for CC50: read-out: LC50 (the source's name)
[6] = system: HL-60(TB); assay: cells; conditions: Homo sapiens; for GI50: HL-60; for CC50: HL-60, read-out: LC50; for IC (TGI): HL-60, read-out: TGI
[7] = RPMI-8226, Log10 Concentration −4.0
[8] = RPMI-8226, Log10 Concentration −5.0
[9] = RPMI-8226, Log10 Concentration −6.0
[10] = RPMI-8226, Log10 Concentration −7.0
[11] = RPMI-8226, Log10 Concentration −8.0
[12] = OVCAR-4, Log10 Concentration −4.0
[13] = OVCAR-4, Log10 Concentration −5.0
[14] = OVCAR-4, Log10 Concentration −6.0
[15] = OVCAR-4, Log10 Concentration −7.0
[16] = OVCAR-4, Log10 Concentration −8.0

C=C1C(=O)O[C@H]2[C@H]1CC/C(COC(=O)Nc1n[nH]c(SC)n1)=C\CC[C@@]1(C)O[C@@H]21 [JVM 64, ((1aR,7aS,10aS,10bS,E)-1a-methyl-8-methylene-9-oxo-1a,2,3,6,7,7a,8,9,10a,10b-decahydrooxireno[2′,3′:9,10]cyclodeca[1,2-b]furan-5-yl)methyl-(5-(methylthio)-1H-1,2,4-triazol-3-yl)carbamate]
GI50 ([1]; RPMI-8226): 2.57 µM | CC50 [1]: > 100 µM | Percent Growth [1, 7]: −46% | Percent Growth [1, 8]: −11% | Percent Growth [1, 9]: 93% | Percent Growth [1, 10]: 100% | Percent Growth [1, 11]: 101% | TGI ([1]; RPMI-8226, NCI five dose): 7.79E−6 | GI50 [2]: 2.32 µM | CC50 [2]: 78.8 µM | Percent Growth ([2]; Log10 Concentration −4.0): −54% | Percent Growth ([2]; Log10 Concentration −5.0): −12% | Percent Growth ([2]; Log10 Concentration −6.0): 66% | Percent Growth ([2]; Log10 Concentration −7.0): 99% | Percent Growth ([2]; Log10 Concentration −8.0): 104% | TGI ([2]; NCI five dose): 7.53E−6 | cytotoxicity compared to MMB [3]: more potent than MMB | fold more cytotoxic than MMB [3]: 3 fold | inhibition at 10 µM [4]: > 60% | GI50 ([4]; sub-panel breast cancer): 0.57 to 3.07 µM | GI50 ([4]; sub-panel colon cancer): 1.12 to 2.06 µM | GI50 ([4]; sub-panel melanoma): 0.46 to 2.84 µM | GI50 ([4]; sub-panel non-small cell lung cancer): 0.65 to 1.45 µM | GI50 ([4]; sub-panel renal cancer): 0.9 to 2.6 µM | GI50 ([5]; OVCAR-4, NCI five dose): 3.28 µM | IC (TGI) ([5]; OVCAR-4, NCI five dose): 19.3 µM | CC50 ([5]; OVCAR-4, NCI five dose): 62.4 µM

C=C1C(=O)O[C@H]2[C@H]1CC/C(COC(=O)OCCCN1CCCCC1)=C\CC[C@@]1(C)O[C@@H]21 [JVM 2-26]
cytotoxicity compared to MMB [3]: more potent than MMB | fold more cytotoxic than MMB [3]: 3 fold | inhibition at 10 µM [4]: > 60% | GI50 ([5]; OVCAR-4): 2.13 µM | IC (TGI) ([5]; OVCAR-4): 11.6 µM | CC50 ([5]; OVCAR-4): 38.6 µM | GI50 [6]: 1.88 µM | CC50 [6]: 98.7 µM | IC (TGI) [6]: 7.53 µM

C=C1C(=O)O[C@H]2[C@H]1CC/C(COC(=O)NCCN1CCCC1)=C\CC[C@@]1(C)O[C@@H]21 [JVM 59, ((1aR,7aS,10aS,10bS,E)-1a-methyl-8-methylene-9-oxo-1a,2,3,6,7,7a,8,9,10a,10b-decahydrooxireno[2′,3′:9,10]cyclodeca[1,2-b]furan-5-yl)methyl-(2-(pyrrolidin-1-yl)ethyl)carbamate]
GI50 ([1]; RPMI-8226): 8.71 µM | CC50 [1]: 97.1 µM | TGI ([1]; RPMI-8226, five dose): 3.01E−5 | Percent Growth [1, 7]: −51% | Percent Growth [1, 8]: 47% | Percent Growth [1, 9]: 97% | Percent Growth [1, 10]: 98% | Percent Growth [1, 11]: 184% | GI50 [2]: 4.18 µM | CC50 [2]: 55.2 µM | TGI ([2]; five dose): 1.59E−5 | Percent Growth ([2]; Log10 Concentration −4.0): −74% | Percent Growth ([2]; Log10 Concentration −5.0): 18% | Percent Growth ([2]; Log10 Concentration −6.0): 102% | Percent Growth ([2]; Log10 Concentration −7.0): 93% | Percent Growth ([2]; Log10 Concentration −8.0): 91% | cytotoxicity compared to MMB [3]: almost equal cytotoxicity to MMB | inhibition at 10 µM [4]: > 60% | GI50 ([5]; OVCAR-4, five dose): 10.4 µM | IC (TGI) ([5]; OVCAR-4, five dose): 24.7 µM | CC50 ([5]; OVCAR-4, five dose): 58.5 µM | GI50 [6]: 4.15 µM | CC50 [6]: 70.3 µM | IC (TGI) [6]: 18.3 µM

C=C1C(=O)O[C@H]2[C@H]1CC/C(COC(=O)NCCc1ccccn1)=C\CC[C@@]1(C)O[C@@H]21 [JVM 61, ((1aR,7aS,10aS,10bS,E)-1a-methyl-8-methylene-9-oxo-1a,2,3,6,7,7a,8,9,10a,10b-decahydrooxireno[2′,3′:9,10]cyclodeca[1,2-b]furan-5-yl)methyl-(2-(pyridin-2-yl)ethyl)carbamate]
GI50 ([1]; RPMI-8226): 8.2 µM | CC50 [1]: > 100 µM | TGI ([1]; RPMI-8226): 3.88E−5 | Percent Growth [1, 7]: −32% | Percent Growth [1, 8]: 45% | Percent Growth [1, 9]: 100% | Percent Growth [1, 10]: 100% | Percent Growth [1, 11]: 102% | GI50 [2]: 7.52 µM | CC50 [2]: 84.9 µM | TGI [2]: 2.71E−5 | Percent Growth ([2]; Log10 Concentration −4.0): −57% | Percent Growth ([2]; Log10 Concentration −5.0): 44% | Percent Growth ([2]; Log10 Concentration −6.0): 95% | Percent Growth ([2]; Log10 Concentration −7.0): 100% | Percent Growth ([2]; Log10 Concentration −8.0): 114% | cytotoxicity compared to MMB [3]: almost equal cytotoxicity to MMB | inhibition at 10 µM [4]: > 60% | GI50 ([5]; OVCAR-4): 7.17 µM | IC (TGI) ([5]; OVCAR-4): 24.6 µM | CC50 ([5]; OVCAR-4): 72.3 µM | Percent Growth [5, 12]: −65% | Percent Growth [5, 13]: 42% | Percent Growth [5, 14]: 99% | Percent Growth [5, 15]: 96% | Percent Growth [5, 16]: 103%

C=C1C(=O)O[C@H]2[C@H]1CC/C(COC(=O)NCCN1CCOCC1)=C\CC[C@@]1(C)O[C@@H]21 [JVM 57, ((1aR,7aS,10aS,10bS,E)-1a-methyl-8-methylene-9-oxo-1a,2,3,6,7,7a,8,9,10a,10b-decahydrooxireno[2′,3′:9,10]-cyclodeca[1,2-b]furan-5-yl)-methyl(2-morpholinoethyl)carbamate]
GI50 ([1]; RPMI-8226): 5.72 µM | CC50 [1]: > 100 µM | TGI ([1]; RPMI-8226): 2.63E−5 | Percent Growth [1, 7]: −47% | Percent Growth [1, 8]: 34% | Percent Growth [1, 9]: 99% | Percent Growth [1, 10]: 97% | Percent Growth [1, 11]: 100% | GI50 [2]: 6.12 µM | CC50 [2]: 63.2 µM | TGI [2]: 2.19E−5 | Percent Growth ([2]; Log10 Concentration −4.0): −72% | Percent Growth ([2]; Log10 Concentration −5.0): 37% | Percent Growth ([2]; Log10 Concentration −6.0): 97% | Percent Growth ([2]; Log10 Concentration −7.0): 91% | Percent Growth ([2]; Log10 Concentration −8.0): 100% | cytotoxicity compared to MMB [3]: less active than MMB | inhibition at 10 µM [4]: > 60% | GI50 ([5]; OVCAR-4): 10.1 µM | IC (TGI) ([5]; OVCAR-4): 25.3 µM | CC50 ([5]; OVCAR-4): 63.4 µM | GI50 [6]: 3.59 µM | CC50 [6]: 85.1 µM | IC (TGI) [6]: 16.1 µM

C=C1C(=O)O[C@H]2[C@H]1CC/C(COC(=O)CCC(=O)NCc1ccc(Cl)nc1)=C\CC[C@@]1(C)O[C@@H]21 [JVM 96]
GI50 ([1]; RPMI-8226): 4.16 µM | CC50 [1]: > 100 µM | TGI ([1]; RPMI-8226): 2.09E−5 | Percent Growth [1, 7]: −48% | Percent Growth [1, 8]: 23% | Percent Growth [1, 9]: 94% | Percent Growth [1, 10]: 107% | Percent Growth [1, 11]: 106% | inhibition at 10 µM [4]: > 60% | GI50 ([5]; OVCAR-4): 10.1 µM | IC (TGI) ([5]; OVCAR-4): 23.6 µM | CC50 ([5]; OVCAR-4): 55.2 µM | Percent Growth [5, 12]: −85% | Percent Growth [5, 13]: 51% | Percent Growth [5, 14]: 87% | Percent Growth [5, 15]: 90% | Percent Growth [5, 16]: 96% | GI50 [6]: 2.12 µM | CC50 [6]: > 100 µM | IC (TGI) [6]: 8.75 µM

C=C1C(=O)O[C@H]2[C@H]1CC/C(COC(=O)NCCCCCCO)=C\CC[C@@]1(C)O[C@@H]21 [JVM 2-31]
inhibition at 10 µM [4]: > 60% | GI50 ([5]; OVCAR-4, NCI five dose): 4.01 µM | IC (TGI) ([5]; OVCAR-4, NCI five dose): 19.4 µM | CC50 ([5]; OVCAR-4, NCI five dose): 65.1 µM | GI50 [6]: 3.64 µM | CC50 [6]: > 100 µM | IC (TGI) [6]: 14.2 µM

C=C1C(=O)O[C@H]2[C@H]1CC/C(COC(=O)OC)=C\CC[C@@]1(C)O[C@@H]21 [JVM 2-40]
inhibition at 10 µM [4]: > 60% | GI50 ([5]; OVCAR-4, NCI five dose): 3.76 µM | IC (TGI) ([5]; OVCAR-4, NCI five dose): 18.7 µM | CC50 ([5]; OVCAR-4, NCI five dose): 64.1 µM | GI50 [6]: 1.69 µM | CC50 [6]: 76.3 µM | IC (TGI) [6]: 7.15 µM

C=C1C(=O)O[C@H]2[C@H]1CC/C(COC(=O)OCCN(C)C)=C\CC[C@@]1(C)O[C@@H]21 [JVM 2-35]
inhibition at 10 µM [4]: > 60% | GI50 ([5]; OVCAR-4, NCI five dose): 5.04 µM | IC (TGI) ([5]; OVCAR-4, NCI five dose): 18.6 µM | CC50 ([5]; OVCAR-4, NCI five dose): 44.6 µM | GI50 [6]: 1.77 µM | CC50 [6]: 87 µM | IC (TGI) [6]: 6.4 µM

Source: patent publication US9469650B2, “Melampomagnolide B derivatives” (BOARD OF TRUSTEES OF THE UNIVERSITY OF ARKANSAS, priority 2013, dated 2016)
